Experiments:
[1] = system: Salmonella typhimurium TA98 line, TA100 line; assay: Fat Test (mutagenicity in Salmonella typhimurium); format: cell-based; set-up: key: When the mutagenicity is negative, the compound is shown as (−); When positive, the compound is shown as (+); conditions: TA98 and TA100 lines, non-metabolism-activation and metabolism-activation conditions
Method: 20 μL of Salmonella enterica subsp. typhimurium (Salmonella typhimurium TA98 line, TA100 line) cryopreserved was inoculated to 10 mL of liquid nutrient medium (2.5% Oxoid nutrient broth No. 2) and then precultured at 37° C. for 10 hours with shaking. Regarding TA98 line, after 9 mL of a bacterial suspension was centrifuged (2000×g, 10 minutes) to remove the culture solution, the bacteria was suspended in 9 mL of Micro F buffer solution (K2HPO4: 3.5 g/L, KH2PO4: 1 g/L, (NH4)2SO4: 1 g/L, tri-sodium citric acid dihydrate: 0.25 g/L, MgSO4.7H2O: 0.1 g/L), and then added to 110 mL of Exposure media (Micro F buffer solution containing biotin: 8 μg/mL, histidine: 0.2 μg/mL, glucose: 8 mg/mL). Regarding TA 100 line, 120 mL of Exposure media was added to 3.16 mL of the bacterial suspension to prepare a test bacterial suspension. 12 μL of a solution of a test substance in DMSO (diluted eight times in a common ratio of 2 from the maximum dose of 50 mg/mL); 12 μL of DMSO as a negative control; 50 μg/mL 4-nitroquinoline-1-oxide solution in DMSO for TA98 line or 0.25 μg/mL 2-(2-furyl)-3-(5-nitro-2-furyl)acrylamide solution in DMSO as a positive control for TA 100 line in the case of a non-metabolism-activation condition; 12 μL of 40 μg/mL 2-aminoanthracene solution in DMSO for TA98 line or 20 μg/mL of 2-aminoanthracene solution in DMSO for TA100 line in the case of a metabolism-activation condition; were each mixed with 588 μL of the test bacterial suspension (in the case of a metabolism activation condition, a mixed solution of 498 μL of the test bacterial suspension and 90 μL S9 mix) and then cultured at 37° C. at 90 minutes with shaking. 460 μL of the bacterial suspension to which a test substance was exposed was mixed with 2300 μL of Indicator media (a Micro F buffer solution containing 8 μg/mL biotin, 0.2 μg/mL histidine, 8 mg/mL glucose, and 37.5 μg/mL bromocresol purple). […] Thus, in 48 wells per dose, the number of the bacteria-proliferation wells in which the color changed to yellow was counted, compared with a group of negative controls, and then evaluated. […]

[2] = target: T1, human ether-a-go-go related gene (hERG) channel (Homo sapiens, UniProt Q12809); assay: hERG test, whole-cell patch-clamp, IKr; format: cell-based; conditions: 1 μmol/L compound; HEK293 cell expressing hERG
T1 construct: expressed in transfected cells; host or cells: HEK293
Description: For the purpose of risk evaluation of QT interval extension of electrocardiogram, the activity on delayed rectification K^+ current (IKr), which plays an important role in a cardiac ventricle repolarization process, was examined using the HEK293 cell that was made to express human ether-a-go-go related gene (hERG) channel.
Using an automatic patch-clamp system (PatchXpress 7000A, Axon Instruments Inc.), by a whole-cell patch-clamp method, after the cell was maintained at a membrane potential of −80 mV, IKr induced upon applying depolarizing stimulation of +50 mV for 2 seconds and further applying repolarizing stimulation of −50 mV for 2 seconds was recorded. After generated electric current became stable, a test substance dissolved at an intended concentration in extracellular fluid (137 mmol/L NaCl, 4 mmol/L KCl, 1.8 mmol/L CaCl2.2H2O, 1 mmol/L MgCl2.6H2O, 10 mmol/L glucose, 10 mmol/L HEPES (4-(2-hydroxyethyl)-1-piperazineethanesulfonic acid), pH=7.4) was applied to the cell for 10 minutes under room temperature condition. From the obtained IKr, the absolute value of the maximum tail current was measured using analysis software (DataXpress ver. 1, Molecular Devices Corporation) and the value of the electric current in a maintained membrane potential as baseline. Moreover, an inhibition ratio for the maximum tail current prior to the application of the test substance was calculated and then compared with a group of media-application (0.1% dimethylsulfoxide solution) to evaluate influence of the test substance on IKr.

CYP2C19 = target: T2, CYP2C19 (Homo sapiens, UniProt P33261); assay: CYP inhibition test, 4′-hydroxylation of mephenyloin; format: in vitro ADME; conditions: pooled human liver microsome; one of 5 kinds
T2 construct: enzyme: pooled human liver microsome 0.2 mg protein/mL; from tissue; host or cells: pooled human liver microsomes
Description: O-de-ethylation of 7-ethoxyresorufin (CYP1A2), methyl-hydroxylation of tolbutamide (CYP2C9), 4′-hydroxylation of mephenyloin (CYP2C19), O-demethylation of dextromethorphan (CYP2D6), and hydroxylation of terfenadine (CYP3A4), which are typical substrate for metabolic reactions of human main CYP5 molecular species (CYP1A2, 2C9, 2C19, 2D6, and 3A4), were adopted as indexes.
The reaction conditions are as follows: substrate: 0.5 μmol/L of ethoxyresorufin (CYP1A2), 100 μmol/L of tolbutamide (CYP2C9), 50 μmol/L of S-mephenyloin (CYP2C19), […] of dextromethorphan (CYP2D6), and 1 μmol/L of terfenadine (CYP3A4); reaction time; 15 minutes; reaction temperature: 37° C.; enzyme: pooled human liver microsome 0.2 mg protein/mL; test drug concentration: 1, 5, 10, and 20 μmol/L (4 points).
In a 96-well plate, as a reaction solution, five kinds of substrates, a human liver microsome, and a test drug were added to 50 mmol/L Hepes buffer solution in the aforementioned ratio. A coenzyme NADPH was added to start a metabolic reaction, which is an index. After reacting at 37° C. for 15 minutes, a solution of methanol/acetonitrile (1/1 (v/v)) was added to quench the reaction. After centrifugation at 3000 rpm for 15 minutes, resorufin (CYP1A2 metabolite) in the supernatant was quantitated with a fluorescence multilabel counter, and hydroxylated tolbutamide (CYP2C9 metabolite), 4′-hydroxylated mephenyloin (CYP2C19 metabolite), […], terfenadine in alcohol form (CYP3A4 metabolite) were quantitated with LC/MS/MS.
The case wherein only DMSO (a solvent which dissolved a drug) was added to a reaction system was defined as a control (100%). When a test drug solution was added, the remaining activity (%) at each concentration was calculated, and then IC50 was calculated with a concentration and an inhibition ratio by an inverse estimation using a logistic model.

T2 sequence (P33261 whole entry): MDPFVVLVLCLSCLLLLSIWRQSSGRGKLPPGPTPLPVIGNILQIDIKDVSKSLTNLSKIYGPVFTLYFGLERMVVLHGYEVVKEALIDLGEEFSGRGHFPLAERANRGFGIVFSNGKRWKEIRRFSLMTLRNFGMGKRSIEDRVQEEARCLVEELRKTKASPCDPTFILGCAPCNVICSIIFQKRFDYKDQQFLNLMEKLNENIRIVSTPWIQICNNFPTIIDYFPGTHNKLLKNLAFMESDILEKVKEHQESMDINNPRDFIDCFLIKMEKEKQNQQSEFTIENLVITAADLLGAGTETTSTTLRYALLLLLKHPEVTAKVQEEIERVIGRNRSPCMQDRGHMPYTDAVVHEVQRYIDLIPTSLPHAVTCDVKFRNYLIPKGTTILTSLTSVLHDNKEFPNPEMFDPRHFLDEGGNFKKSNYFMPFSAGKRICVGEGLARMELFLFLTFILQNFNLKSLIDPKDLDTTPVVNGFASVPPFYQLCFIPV
T1 sequence (Q12809 whole entry): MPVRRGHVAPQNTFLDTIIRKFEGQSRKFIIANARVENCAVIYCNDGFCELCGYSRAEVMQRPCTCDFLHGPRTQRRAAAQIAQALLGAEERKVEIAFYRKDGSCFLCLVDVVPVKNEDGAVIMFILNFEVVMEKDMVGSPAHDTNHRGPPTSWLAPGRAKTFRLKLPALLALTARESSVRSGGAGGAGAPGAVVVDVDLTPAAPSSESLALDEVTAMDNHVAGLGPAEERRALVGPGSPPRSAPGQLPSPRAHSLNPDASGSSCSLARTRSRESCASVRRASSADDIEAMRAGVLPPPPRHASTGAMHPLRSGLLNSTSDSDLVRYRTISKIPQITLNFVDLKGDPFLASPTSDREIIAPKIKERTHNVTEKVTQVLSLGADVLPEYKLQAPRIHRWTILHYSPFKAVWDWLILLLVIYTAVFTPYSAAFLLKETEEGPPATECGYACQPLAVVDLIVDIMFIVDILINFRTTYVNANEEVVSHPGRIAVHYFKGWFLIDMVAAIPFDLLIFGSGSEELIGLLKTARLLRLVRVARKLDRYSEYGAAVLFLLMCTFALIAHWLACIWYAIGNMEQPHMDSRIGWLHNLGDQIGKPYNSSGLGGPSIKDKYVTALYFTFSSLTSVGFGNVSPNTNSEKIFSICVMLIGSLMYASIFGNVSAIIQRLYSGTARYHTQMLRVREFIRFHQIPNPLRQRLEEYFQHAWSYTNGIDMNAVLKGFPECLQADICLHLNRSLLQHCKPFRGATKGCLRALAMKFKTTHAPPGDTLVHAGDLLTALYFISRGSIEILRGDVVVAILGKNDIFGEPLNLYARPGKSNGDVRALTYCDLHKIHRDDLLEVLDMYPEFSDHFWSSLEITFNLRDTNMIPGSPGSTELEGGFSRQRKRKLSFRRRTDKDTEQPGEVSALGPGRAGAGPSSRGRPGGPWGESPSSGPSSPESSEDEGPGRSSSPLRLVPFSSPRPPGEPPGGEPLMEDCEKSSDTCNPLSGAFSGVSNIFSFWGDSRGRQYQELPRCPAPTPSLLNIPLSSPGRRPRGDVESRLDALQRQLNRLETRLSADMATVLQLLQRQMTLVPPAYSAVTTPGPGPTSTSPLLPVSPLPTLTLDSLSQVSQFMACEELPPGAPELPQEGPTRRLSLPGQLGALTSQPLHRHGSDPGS

Compound	mutagenicity [1]	hERG inhibition ratio for the maximum tail current (IKr) [2] [%]	IC50 (CYP2C19) [µM]
O=C(O)c1ccccc1Nc1ccc2c(n1)N(C(=O)Nc1ccccc1)CCO2 [Compound I-145]	(−)	15	–
O=C(O)COc1cccc(Nc2ccc3c(n2)N(C(=O)Nc2ccccc2)CCO3)c1 [Compound I-240]	–	–	> 20

Reference: US20110172217A1, “RING-FUSED MORPHOLINE DERIVATIVE HAVING PI3K-INHIBITING ACTIVITY” (Shionogi & Co., Ltd., priority 2008, published 2011)
